According to the supplement of paper PMC10307832:

Columns and labels:
Assay in all cases: relative viability (nuclei count vs DMSO), 5 days (fraction); higher = more cells survive
KIN001-266 + Olaparib = compound: CCN1CCC(CC1)N2C=C(N=N2)CNC3=CC4=C(C(=CN=C4C(=C3)Cl)C#N)NC5=CC(=C(C=C5)F)Cl [KIN001-266] + O=C(c1cc(Cc2n[nH]c(=O)c3ccccc23)ccc1F)N1CCN(C(=O)C2CC2)CC1 [Olaparib] (partner 8 µM)
Summary of the method: (§1)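 The day after seeding in 1536-well plates, lung cancer cell lines were treated by pin tool with a single drug, or with a fixed anchor-drug dose together with five library-drug doses (not always all listed) in √10 steps. After 5 days, a combined fix-and-stain solution (final 0.05% Triton X-100, 1% formaldehyde, 1 ug/ml Hoechst) was added. Nuclei counted on 4× images gave relative viability as treated counts over vehicle counts, reported as the median of duplicate plates.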

KIN001-266 + Decitabine = compound: CCN1CCC(CC1)N2C=C(N=N2)CNC3=CC4=C(C(=CN=C4C(=C3)Cl)C#N)NC5=CC(=C(C=C5)F)Cl [KIN001-266] + Nc1ncn([C@H]2C[C@H](O)[C@@H](CO)O2)c(=O)n1 [Decitabine] (partner 2 µM)
Summary of the method: as §1

KIN001-266 + AZD7762 = compound: CCN1CCC(CC1)N2C=C(N=N2)CNC3=CC4=C(C(=CN=C4C(=C3)Cl)C#N)NC5=CC(=C(C=C5)F)Cl [KIN001-266] + NC(=O)Nc1cc(-c2cccc(F)c2)sc1C(=O)N[C@H]1CCCNC1 [AZD7762] (partner 0.2 µM)
Summary of the method: as §1

KIN001-266 + Lapatinib = compound: CCN1CCC(CC1)N2C=C(N=N2)CNC3=CC4=C(C(=CN=C4C(=C3)Cl)C#N)NC5=CC(=C(C=C5)F)Cl [KIN001-266] + CS(=O)(=O)CCNCc1ccc(-c2ccc3ncnc(Nc4ccc(OCc5cccc(F)c5)c(Cl)c4)c3c2)o1 [Lapatinib] (partner 2 µM)
Summary of the method: as §1

| Cell Line | relative viability (KIN001-266 + Olaparib; first compound 0.08 µM) | relative viability (KIN001-266 + Olaparib; first compound 0.253 µM) | relative viability (KIN001-266 + Olaparib; first compound 0.8 µM) | relative viability (KIN001-266 + Olaparib; first compound 2.53 µM) | relative viability (KIN001-266 + Olaparib; first compound 8 µM) | relative viability (KIN001-266 + Decitabine; first compound 0.08 µM) | relative viability (KIN001-266 + Decitabine; first compound 0.253 µM) | relative viability (KIN001-266 + Decitabine; first compound 0.8 µM) | relative viability (KIN001-266 + Decitabine; first compound 2.53 µM) | relative viability (KIN001-266 + Decitabine; first compound 8 µM) | relative viability (KIN001-266 + AZD7762; first compound 0.08 µM) | relative viability (KIN001-266 + AZD7762; first compound 0.253 µM) | relative viability (KIN001-266 + AZD7762; first compound 0.8 µM) | relative viability (KIN001-266 + AZD7762; first compound 2.53 µM) | relative viability (KIN001-266 + AZD7762; first compound 8 µM) | relative viability (KIN001-266 + Lapatinib; first compound 0.08 µM) | relative viability (KIN001-266 + Lapatinib; first compound 0.253 µM) | relative viability (KIN001-266 + Lapatinib; first compound 0.8 µM) | relative viability (KIN001-266 + Lapatinib; first compound 2.53 µM) | relative viability (KIN001-266 + Lapatinib; first compound 8 µM) |
| --- | --- | --- | --- | --- | --- | --- | --- | --- | --- | --- | --- | --- | --- | --- | --- | --- | --- | --- | --- | --- |
| NCI-H358 | 0.6 | 0.556 | 0.58 | 0.458 | 0.325 | 0.209 | 0.219 | 0.197 | 0.212 | 0.173 | 0.574 | 0.459 | 0.41 | 0.547 | 0.474 | 0.493 | 0.497 | 0.483 | 0.407 | 0.372 |
| NCI-H460 | 0.418 | 0.447 | 0.466 | 0.308 | 0.409 | 0.483 | 0.477 | 0.475 | 0.433 | 0.438 | 0.543 | 0.679 | 0.681 | 0.554 | 0.524 | 0.891 | 0.933 | 1.13 | 1 | 0.954 |
| NCI-H596 | 0.744 | 0.723 | 0.662 | 0.712 | 0.756 | 1.13 | 1.19 | 0.967 | 1.07 | 0.99 | 1.2 | 0.931 | 1.17 | 0.936 | 1.04 | 1.09 | 1.07 | 1.17 | 1.06 | 1.01 |
| NCI-H647 | 0.565 | 0.516 | 0.701 | 0.501 | 0.301 | 0.4 | 0.385 | 0.344 | 0.357 | 0.336 | 0.432 | 0.366 | 0.568 | 0.431 | 0.434 | 1.04 | 1.07 | 1.11 | 0.876 | 0.818 |
| NCI-H650 | 0.452 | 0.381 | 0.349 | 0.336 | 0.34 | 0.346 | 0.337 | 0.309 | 0.319 | 0.306 | 1.09 | 1.17 | 1 | 1.08 | 1.23 | 1.04 | 1.07 | 0.849 | 1.12 | 1.16 |
| NCI-H727 | 0.679 | 0.649 | 0.626 | 0.683 | 0.531 | 0.9 | 0.954 | 0.744 | 0.755 | 0.643 | 0.514 | 0.554 | 0.518 | 0.494 | 0.649 | 0.821 | 1.1 | 0.806 | 0.805 | 0.537 |
| NCI-H838 | 0.775 | 0.811 | 0.764 | 0.68 | 0.471 | 0.476 | 0.488 | 0.454 | 0.423 | 0.371 | 0.945 | 0.83 | 0.886 | 0.914 | 0.924 | 0.988 | 0.989 | 1.13 | 1.06 | 0.866 |
| NCI-H1355 | 0.765 | 0.769 | 0.699 | 0.716 | 0.731 | 0.365 | 0.352 | 0.357 | 0.374 | 0.346 | 0.771 | 0.734 | 0.73 | 0.556 | 0.521 | 1.1 | 0.924 | 1.02 | 1.04 | 0.938 |
